From US20230123334A1, “AMINO LIPID COMPOUND, PREPARATION METHOD THEREFOR, AND APPLICATION THEREOF” (SHENZHEN SHENXIN BIOTECHNOLOGY CO., LTD., priority 2020, published 2023)

System: HEK293 cells
Experiment: Preliminary screening as DNA vectors, GFP transfection of HEK293 cells
Type: cell-based
Conditions: amino lipid/DOPE liposome with 75 ng plasmid DNA (psin-EGFP-IRES-Puro); number of GFP-expressing cells divided by total nuclei (Hoechst)
Method in brief: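 HEK293 cells in DMEM/10% FBS transfected with 75 ng EGFP plasmid per well complexed with amino lipid/DOPE liposomes in pH 5.6 sodium acetate. Hoechst nuclear stain added 20-24 h post-transfection, then cells cultured another 20-24 h. Confocal imaging gives GFP-positive cells as % of total nuclei.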

| SMILES | Absolute DNA transfection efficiency in HEK293 cells [%] |
| --- | --- |
| CCCCCCCCCCCCCCSc1nc(NCCCCCC)nc(NCCCN2CCN(C)CC2)n1 [S14N6 D9] | 17.4 |
| CCCCCCCCCCCCCCSc1nc(NCCCCCC)nc(NCC2CCN(C)CC2)n1 [S14N6 D10] | 39.0 |
| CCCCCCCCCCCCCCSc1nc(NCCCCCCC)nc(NCCN(C)C)n1 [S14N7 D1] | 12.5 |
| CCCCCCCCCCCCCCSc1nc(NCCCCCCC)nc(NCCN2CCOCC2)n1 [S14N7 D2] | 18.7 |
| CCCCCCCCCCCCCCSc1nc(NCCCCCCC)nc(NCCN2CCCC2)n1 [S14N7 D3] | 14.4 |
| CCCCCCCCCCCCCCSc1nc(NCCCCCCC)nc(NCCN2CCCCC2)n1 [S14N7 D4] | 3.7 |
| CCCCCCCCCCCCCCSc1nc(NCCCCCCC)nc(NCCN2CCN(C)CC2)n1 [S14N7 D5] | 16.3 |
| CCCCCCCCCCCCCCSc1nc(NCCCCCCC)nc(NCCCN(C)C)n1 [S14N7 D6] | 25.0 |
| CCCCCCCCCCCCCCSc1nc(NCCCCCCC)nc(NCCN(CC)CC)n1 [S14N7 D7] | 10.5 |
| CCCCCCCCCCCCCCSc1nc(NCCCCCCC)nc(NCCCN2CCOCC2)n1 [S14N7 D8] | 13.3 |
| CCCCCCCCCCCCCCSc1nc(NCCCCCCC)nc(NCCCN2CCN(C)CC2)n1 [S14N7 D9] | 16.1 |
| CCCCCCCCCCCCCCSc1nc(NCCCCCCC)nc(NCC2CCN(C)CC2)n1 [S14N7 D10] | 34.6 |
| CCCCCCCCCCCCCCSc1nc(NCCCCCCCC)nc(NCCN(C)C)n1 [S14N8 D1] | 8.9 |
| CCCCCCCCCCCCCCSc1nc(NCCCCCCCC)nc(NCCN2CCOCC2)n1 [S14N8 D2] | 12.9 |
| CCCCCCCCCCCCCCSc1nc(NCCCCCCCC)nc(NCCN2CCCC2)n1 [S14N8 D3] | 24.4 |
| CCCCCCCCCCCCCCSc1nc(NCCCCCCCC)nc(NCCN2CCCCC2)n1 [S14N8 D4] | 2.6 |
| CCCCCCCCCCCCCCSc1nc(NCCCCCCCC)nc(NCCN2CCN(C)CC2)n1 [S14N8 D5] | 19.6 |
| CCCCCCCCCCCCCCSc1nc(NCCCCCCCC)nc(NCCCN(C)C)n1 [S14N8 D6] | 33.4 |
| CCCCCCCCCCCCCCSc1nc(NCCCCCCCC)nc(NCCN(CC)CC)n1 [S14N8 D7] | 1.6 |
| CCCCCCCCCCCCCCSc1nc(NCCCCCCCC)nc(NCCCN2CCOCC2)n1 [S14N8 D8] | 9.8 |
| CCCCCCCCCCCCCCSc1nc(NCCCCCCCC)nc(NCCCN2CCN(C)CC2)n1 [S14N8 D9] | 15.7 |
| CCCCCCCCCCCCCCSc1nc(NCCCCCCCC)nc(NCC2CCN(C)CC2)n1 [S14N8 D10] | 26.2 |
| CCCCCCCCCCCCCCSc1nc(NCCCCCCCCC)nc(NCCN(C)C)n1 [S14N9 D1] | 20.8 |
| CCCCCCCCCCCCCCSc1nc(NCCCCCCCCC)nc(NCCN2CCOCC2)n1 [S14N9 D2] | 9.7 |
| CCCCCCCCCCCCCCSc1nc(NCCCCCCCCC)nc(NCCN2CCCC2)n1 [S14N9 D3] | 30.7 |
| CCCCCCCCCCCCCCSc1nc(NCCCCCCCCC)nc(NCCN2CCCCC2)n1 [S14N9 D4] | 2.0 |
| CCCCCCCCCCCCCCSc1nc(NCCCCCCCCC)nc(NCCN2CCN(C)CC2)n1 [S14N9 D5] | 16.9 |
